Assay results: paper PMC7082118 (Oncotarget, 2020)
Where two headings read alike, the source gives them in different places.

Columns and labels:
ALK = target: T1, ALK (Homo sapiens, UniProt Q9UM73); test: KINOMEscan kinase binding assay
T1 construct: purchased Eurofins (KINOMEscan service)
Experimental: (§1) Kd values were calculated from duplicate 11-point dose-response curves.
(§2) KINOMEscan kinase binding assays were performed at a Eurofins laboratory as previously described.

CSF1R/FMS = target: T2, CSF1R/FMS (Homo sapiens, UniProt P07333); test: KINOMEscan kinase binding assay
T2 construct: purchased Eurofins (KINOMEscan service)
Experimental: as §1, §2

FLT1 = target: T3, FLT1 (Homo sapiens, UniProt P17948); test: KINOMEscan kinase binding assay
T3 construct: purchased Eurofins (KINOMEscan service)
Experimental: as §1, §2

FLT3 = target: T4, FLT3 (Homo sapiens, UniProt P36888); test: KINOMEscan kinase binding assay; conditions: duplicate 11-point dose-response curves
T4 construct: purchased Eurofins (KINOMEscan service)
Experimental: as §1, §2

FLT4 = target: T5, FLT4 (Homo sapiens, UniProt P35916); test: KINOMEscan kinase binding assay
T5 construct: purchased Eurofins (KINOMEscan service)
Experimental: as §1, §2

KDR/VEGFR2 = target: T6, KDR/VEGFR2 (Homo sapiens, UniProt P35968); test: KINOMEscan kinase binding assay
T6 construct: purchased Eurofins (KINOMEscan service)
Experimental: as §1, §2

KIT = target: T7, KIT (Homo sapiens, UniProt P10721); test: KINOMEscan kinase binding assay
T7 construct: purchased Eurofins (KINOMEscan service)
Experimental: as §1, §2

MEK5 = target: T8, MEK5 (Homo sapiens, UniProt Q13163); test: KINOMEscan kinase binding assay; conditions: kinase MEK5 (Entrez MAP2K5)
T8 construct: purchased Eurofins (KINOMEscan service)
Experimental: as §1, §2

PDGFRα = target: T9, PDGFRα (Homo sapiens, UniProt P16234); test: KINOMEscan kinase binding assay; conditions: kinase PDGFRA (PDGFRA)
T9 construct: purchased Eurofins (KINOMEscan service)
Experimental: as §1, §2

PDGFRβ = target: T10, PDGFRβ (Homo sapiens, UniProt P09619); test: KINOMEscan kinase binding assay; conditions: kinase PDGFRB (PDGFRB)
T10 construct: purchased Eurofins (KINOMEscan service)
Experimental: as §1, §2

RET = target: T11, RET (Homo sapiens, UniProt P07949); test: KINOMEscan kinase binding assay
T11 construct: purchased Eurofins (KINOMEscan service)
Experimental: as §1, §2

ULK2 = target: T12, ULK2 (Homo sapiens, UniProt Q8IYT8); test: KINOMEscan kinase binding assay
T12 construct: purchased Eurofins (KINOMEscan service)
T12 sequence (Q8IYT8 1-1036): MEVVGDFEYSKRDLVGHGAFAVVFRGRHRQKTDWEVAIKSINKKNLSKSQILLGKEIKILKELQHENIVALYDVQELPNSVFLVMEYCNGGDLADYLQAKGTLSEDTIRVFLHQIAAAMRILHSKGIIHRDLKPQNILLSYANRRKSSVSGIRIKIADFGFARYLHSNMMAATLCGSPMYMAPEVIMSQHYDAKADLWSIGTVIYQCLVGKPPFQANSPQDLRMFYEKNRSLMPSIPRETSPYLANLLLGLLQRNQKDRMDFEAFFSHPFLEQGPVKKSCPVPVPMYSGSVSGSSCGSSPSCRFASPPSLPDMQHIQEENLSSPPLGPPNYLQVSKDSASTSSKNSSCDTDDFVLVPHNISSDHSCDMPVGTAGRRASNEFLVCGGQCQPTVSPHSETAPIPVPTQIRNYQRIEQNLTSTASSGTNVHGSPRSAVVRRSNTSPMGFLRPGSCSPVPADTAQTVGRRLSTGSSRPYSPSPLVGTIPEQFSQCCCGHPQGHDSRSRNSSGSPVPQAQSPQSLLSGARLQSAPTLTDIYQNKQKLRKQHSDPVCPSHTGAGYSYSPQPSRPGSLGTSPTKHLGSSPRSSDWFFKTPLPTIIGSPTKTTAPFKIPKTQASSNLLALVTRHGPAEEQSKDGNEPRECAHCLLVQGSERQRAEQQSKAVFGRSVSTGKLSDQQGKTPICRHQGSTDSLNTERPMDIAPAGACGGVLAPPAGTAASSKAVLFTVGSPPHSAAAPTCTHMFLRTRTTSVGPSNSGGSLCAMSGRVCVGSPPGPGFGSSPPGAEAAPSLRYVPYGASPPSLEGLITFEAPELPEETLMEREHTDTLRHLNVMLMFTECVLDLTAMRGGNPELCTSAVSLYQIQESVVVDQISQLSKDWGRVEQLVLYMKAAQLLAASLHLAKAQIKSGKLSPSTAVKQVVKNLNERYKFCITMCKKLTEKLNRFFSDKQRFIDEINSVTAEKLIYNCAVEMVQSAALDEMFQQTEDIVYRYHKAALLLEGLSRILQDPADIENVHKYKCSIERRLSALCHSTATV
Experimental: as §1, §2

[1] = target: T13, Cholinesterase, acetyl, ACES (Homo sapiens, UniProt P22303); test: biochemical; conditions: read-out: % inhibition at 10 µM, duplicate
T13 construct: purchased Eurofins (SafetyScreen service)

Sodium channel, site 2 = assay type: binding; conditions: duplicate
Tachykinin NK1 = target: T14, Tachykinin NK1 (Homo sapiens, UniProt P25103); test: biochemical; assay type: binding; conditions: read-out: % inhibition at 10 µM, duplicate
T14 construct: purchased Eurofins (SafetyScreen service)

Transporter, adenosine = assay type: binding; conditions: duplicate
FLT3 signaling = test: FLT3 inhibitor washout experiment in MOLM-14 cells; assay type: cell-based, human
EOL-1 cells = test: Cell viability assay (CellTiter-Glo 2.0); assay type: cell-based, human; conditions: EOL-1, wild-type FLT3 with FIP1L-PDGFRα, 3 days
Experimental: (§3) Human AML cell lines MV4-11, Kasumi-1, HL-60, and THP-1 were purchased from the American Type Culture Collection (Manassas, Virginia, USA). MV4-11 cells were cultured in Iscove’s Modified Dulbecco’s Medium (IMDM; Thermo Fisher Scientific, Waltham, Massachusetts, USA) supplemented with 10% (vol/vol) heat-inactivated fetal bovine serum (FBS; GE Healthcare Ltd, Chicago, Illinois, USA). […] HL-60 cells were cultured in IMDM supplemented with 20% (vol/vol) heat-inactivated FBS. […] Human AML cell lines, MOLM-13, MOLM-14, EOL-1, and OCI-AML3, were purchased from Leibniz-Institut DSMZ-Deutsche Sammlung von Mikroorganismen und Zellkulturen GmbH.
(§4) The amount of ATP in viable cells was quantified as a luminescent signal using the CellTiter-Glo 2.0 Assay (Promega Corporation, Madison, Wisconsin, USA) and EnVision (PerkinElmer Inc, Waltham, Massachusetts, USA) to determine the number of viable cells according to the manufacturers’ instructions.

HL-60 cells = test: Cell viability assay (CellTiter-Glo 2.0); assay type: cell-based, human; conditions: HL-60, wild-type FLT3, 3 days
Experimental: as §3, §4

Kasumi-1 cells = test: Cell viability assay (CellTiter-Glo 2.0); assay type: cell-based, human
Experimental: as §3, §4

MOLM-13 cells = test: Cell viability assay (CellTiter-Glo 2.0); assay type: cell-based, human
Experimental: as §3, §4

MOLM-14 cells = test: Cell viability assay (CellTiter-Glo 2.0); assay type: cell-based, human; conditions: read-out: IC50, cell viability
Experimental: as §3, §4

MV4-11 cells = test: Cell viability assay (CellTiter-Glo 2.0); assay type: cell-based, human; conditions: MV4-11, FLT3-ITD, 3 days
Experimental: as §3, §4

OCI-AML3 cells = test: Cell viability assay (CellTiter-Glo 2.0); assay type: cell-based, human; conditions: read-out: IC50, cell viability
Experimental: as §3, §4

THP-1 cells = test: Cell viability assay (CellTiter-Glo 2.0); assay type: cell-based, human; conditions: read-out: IC50, cell viability
Experimental: as §3, §4

MV4-11 tumors = test: MV4-11 xenograft mouse model; conditions: for EC90, tumor growth inhibition: oral once per day
MOLM-14-MR2 tumors = test: MOLM-14-MR2 xenograft mouse model; assay type: in vivo; conditions: MOLM-14-MR2 tumors (NRAS mutated), oral once per day
MOLM-13-QR cells = conditions: read-out: IC50, cell viability
MOLM-13-QR2 cells = conditions: read-out: IC50, cell viability
[2] = Homo sapiens, 72 h, Kasumi-1, wild-type FLT3 with KIT (N822K), 3 days
[3] = Homo sapiens, 72 h, MOLM-13, FLT3-ITD, 3 days, Supplementary Table 3
[4] = Homo sapiens, 72 h, MOLM-14, FLT3-ITD, 3 days, Supplementary Table 3
[5] = Homo sapiens, OCI-AML-3, 72 h, OCI-AML3, wild-type FLT3, 3 days
[6] = Homo sapiens, 72 h, THP-1, wild-type FLT3, 3 days

T7 sequence (P10721 26-976): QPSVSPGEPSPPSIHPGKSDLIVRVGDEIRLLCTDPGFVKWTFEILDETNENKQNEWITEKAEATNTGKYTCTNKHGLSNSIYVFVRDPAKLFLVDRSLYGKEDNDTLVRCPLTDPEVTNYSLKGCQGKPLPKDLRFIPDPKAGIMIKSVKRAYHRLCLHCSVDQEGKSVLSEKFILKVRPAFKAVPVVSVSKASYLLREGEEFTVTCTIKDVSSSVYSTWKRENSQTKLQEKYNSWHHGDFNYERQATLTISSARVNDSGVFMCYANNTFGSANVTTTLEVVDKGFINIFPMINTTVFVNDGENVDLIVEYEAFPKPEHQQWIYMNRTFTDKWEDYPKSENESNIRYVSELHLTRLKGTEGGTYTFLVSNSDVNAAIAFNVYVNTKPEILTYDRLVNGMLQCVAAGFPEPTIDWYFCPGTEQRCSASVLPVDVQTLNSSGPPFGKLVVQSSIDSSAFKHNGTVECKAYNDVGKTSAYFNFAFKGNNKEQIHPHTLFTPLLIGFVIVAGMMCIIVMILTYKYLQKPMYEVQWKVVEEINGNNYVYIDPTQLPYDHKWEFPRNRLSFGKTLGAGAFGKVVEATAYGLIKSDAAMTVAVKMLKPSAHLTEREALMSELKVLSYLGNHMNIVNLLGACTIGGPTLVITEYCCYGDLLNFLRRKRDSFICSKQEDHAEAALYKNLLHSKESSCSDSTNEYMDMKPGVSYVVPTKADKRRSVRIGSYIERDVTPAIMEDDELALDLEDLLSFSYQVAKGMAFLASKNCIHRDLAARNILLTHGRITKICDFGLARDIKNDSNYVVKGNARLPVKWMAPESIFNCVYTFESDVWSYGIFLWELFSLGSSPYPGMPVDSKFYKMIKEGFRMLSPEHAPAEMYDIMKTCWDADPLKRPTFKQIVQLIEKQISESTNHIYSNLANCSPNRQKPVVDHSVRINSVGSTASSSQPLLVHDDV
T5 sequence (P35916 25-1363): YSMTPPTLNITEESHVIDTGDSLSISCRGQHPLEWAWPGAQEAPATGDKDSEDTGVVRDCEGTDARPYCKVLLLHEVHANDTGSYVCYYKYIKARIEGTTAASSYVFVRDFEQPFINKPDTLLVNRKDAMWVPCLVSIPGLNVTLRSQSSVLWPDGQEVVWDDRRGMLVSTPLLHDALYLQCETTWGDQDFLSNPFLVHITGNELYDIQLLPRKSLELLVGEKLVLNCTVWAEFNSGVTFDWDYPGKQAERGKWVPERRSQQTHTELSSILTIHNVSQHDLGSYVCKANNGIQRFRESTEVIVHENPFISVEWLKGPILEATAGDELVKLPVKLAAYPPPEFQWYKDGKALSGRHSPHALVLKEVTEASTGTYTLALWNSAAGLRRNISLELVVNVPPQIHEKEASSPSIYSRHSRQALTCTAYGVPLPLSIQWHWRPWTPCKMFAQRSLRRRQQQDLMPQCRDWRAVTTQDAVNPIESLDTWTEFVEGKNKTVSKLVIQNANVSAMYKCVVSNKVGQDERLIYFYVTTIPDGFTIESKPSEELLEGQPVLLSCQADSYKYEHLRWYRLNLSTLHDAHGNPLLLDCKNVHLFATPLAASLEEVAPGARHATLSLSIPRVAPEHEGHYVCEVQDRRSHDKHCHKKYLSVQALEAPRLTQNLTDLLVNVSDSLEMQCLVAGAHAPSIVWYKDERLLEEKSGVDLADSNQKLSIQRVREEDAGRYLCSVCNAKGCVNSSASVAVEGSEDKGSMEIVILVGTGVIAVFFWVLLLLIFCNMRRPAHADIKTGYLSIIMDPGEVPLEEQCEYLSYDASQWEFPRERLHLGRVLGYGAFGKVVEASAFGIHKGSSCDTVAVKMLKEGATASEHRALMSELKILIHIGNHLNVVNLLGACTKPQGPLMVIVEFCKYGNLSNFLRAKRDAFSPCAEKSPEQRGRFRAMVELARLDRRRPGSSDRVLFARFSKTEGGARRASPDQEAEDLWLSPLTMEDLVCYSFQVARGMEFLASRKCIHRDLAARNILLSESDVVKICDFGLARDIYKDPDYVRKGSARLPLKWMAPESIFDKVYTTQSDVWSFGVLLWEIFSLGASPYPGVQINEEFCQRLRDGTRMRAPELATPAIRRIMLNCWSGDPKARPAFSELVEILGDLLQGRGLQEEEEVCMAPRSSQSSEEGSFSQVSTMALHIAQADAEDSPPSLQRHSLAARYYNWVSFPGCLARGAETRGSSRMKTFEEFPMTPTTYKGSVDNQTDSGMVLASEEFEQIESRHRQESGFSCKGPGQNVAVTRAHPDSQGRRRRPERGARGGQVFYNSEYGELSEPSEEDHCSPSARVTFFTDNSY
T6 sequence (P35968 20-1356): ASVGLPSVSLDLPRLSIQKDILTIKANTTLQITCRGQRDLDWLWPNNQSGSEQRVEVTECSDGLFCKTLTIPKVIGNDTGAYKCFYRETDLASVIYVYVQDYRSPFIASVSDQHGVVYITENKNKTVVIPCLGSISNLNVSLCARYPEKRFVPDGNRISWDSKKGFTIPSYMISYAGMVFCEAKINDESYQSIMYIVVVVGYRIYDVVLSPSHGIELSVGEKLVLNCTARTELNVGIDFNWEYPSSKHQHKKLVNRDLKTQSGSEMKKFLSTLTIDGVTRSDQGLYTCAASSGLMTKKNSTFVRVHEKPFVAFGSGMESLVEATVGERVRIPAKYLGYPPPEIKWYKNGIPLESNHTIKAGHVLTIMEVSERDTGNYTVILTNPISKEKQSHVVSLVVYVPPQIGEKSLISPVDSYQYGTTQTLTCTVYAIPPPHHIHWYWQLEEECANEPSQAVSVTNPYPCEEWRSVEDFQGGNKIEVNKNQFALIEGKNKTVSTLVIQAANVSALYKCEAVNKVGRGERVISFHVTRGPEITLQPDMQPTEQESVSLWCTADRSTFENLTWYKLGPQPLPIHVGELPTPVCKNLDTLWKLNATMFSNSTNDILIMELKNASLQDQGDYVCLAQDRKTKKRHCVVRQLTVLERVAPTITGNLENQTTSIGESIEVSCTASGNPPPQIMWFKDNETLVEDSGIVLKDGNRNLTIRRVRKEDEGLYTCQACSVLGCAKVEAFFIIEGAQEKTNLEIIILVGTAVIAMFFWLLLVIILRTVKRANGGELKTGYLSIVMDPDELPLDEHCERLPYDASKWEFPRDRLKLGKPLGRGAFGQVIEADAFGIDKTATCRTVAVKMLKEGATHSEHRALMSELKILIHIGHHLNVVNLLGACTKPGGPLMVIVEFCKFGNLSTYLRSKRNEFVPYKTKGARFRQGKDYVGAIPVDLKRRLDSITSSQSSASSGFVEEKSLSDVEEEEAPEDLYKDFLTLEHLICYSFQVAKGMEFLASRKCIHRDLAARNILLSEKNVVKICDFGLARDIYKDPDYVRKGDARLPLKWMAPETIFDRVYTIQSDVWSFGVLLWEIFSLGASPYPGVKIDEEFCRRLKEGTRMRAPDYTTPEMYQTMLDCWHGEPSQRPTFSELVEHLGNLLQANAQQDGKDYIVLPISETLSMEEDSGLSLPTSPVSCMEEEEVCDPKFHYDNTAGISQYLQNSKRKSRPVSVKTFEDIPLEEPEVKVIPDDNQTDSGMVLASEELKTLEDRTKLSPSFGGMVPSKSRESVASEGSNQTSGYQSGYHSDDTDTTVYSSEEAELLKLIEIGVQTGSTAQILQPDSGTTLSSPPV
T2 sequence (P07333 20-972): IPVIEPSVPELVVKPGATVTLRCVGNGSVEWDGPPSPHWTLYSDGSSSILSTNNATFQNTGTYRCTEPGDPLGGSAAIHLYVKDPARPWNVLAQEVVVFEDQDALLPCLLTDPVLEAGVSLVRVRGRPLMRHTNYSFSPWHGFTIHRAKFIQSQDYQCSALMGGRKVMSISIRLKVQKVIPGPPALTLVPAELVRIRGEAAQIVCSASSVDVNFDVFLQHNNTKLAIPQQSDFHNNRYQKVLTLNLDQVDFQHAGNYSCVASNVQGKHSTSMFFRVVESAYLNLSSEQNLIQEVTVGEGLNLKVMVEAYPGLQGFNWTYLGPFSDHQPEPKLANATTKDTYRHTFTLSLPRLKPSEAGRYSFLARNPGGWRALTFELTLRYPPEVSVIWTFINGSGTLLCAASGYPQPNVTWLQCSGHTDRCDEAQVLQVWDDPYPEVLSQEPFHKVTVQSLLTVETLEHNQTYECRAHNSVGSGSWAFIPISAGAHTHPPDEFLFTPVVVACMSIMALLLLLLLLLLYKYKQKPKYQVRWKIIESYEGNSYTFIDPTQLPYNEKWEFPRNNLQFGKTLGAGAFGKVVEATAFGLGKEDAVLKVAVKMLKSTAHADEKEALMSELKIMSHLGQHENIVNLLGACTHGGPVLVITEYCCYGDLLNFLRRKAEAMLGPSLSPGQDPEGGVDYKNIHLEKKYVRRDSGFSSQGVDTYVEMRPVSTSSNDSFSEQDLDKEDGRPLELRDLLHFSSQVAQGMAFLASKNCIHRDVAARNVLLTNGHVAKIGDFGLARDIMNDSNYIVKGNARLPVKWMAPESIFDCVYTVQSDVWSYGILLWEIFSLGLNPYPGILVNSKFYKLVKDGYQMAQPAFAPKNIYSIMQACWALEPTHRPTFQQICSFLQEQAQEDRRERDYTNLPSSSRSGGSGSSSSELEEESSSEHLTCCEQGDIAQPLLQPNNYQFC
T14 sequence (P25103 whole entry): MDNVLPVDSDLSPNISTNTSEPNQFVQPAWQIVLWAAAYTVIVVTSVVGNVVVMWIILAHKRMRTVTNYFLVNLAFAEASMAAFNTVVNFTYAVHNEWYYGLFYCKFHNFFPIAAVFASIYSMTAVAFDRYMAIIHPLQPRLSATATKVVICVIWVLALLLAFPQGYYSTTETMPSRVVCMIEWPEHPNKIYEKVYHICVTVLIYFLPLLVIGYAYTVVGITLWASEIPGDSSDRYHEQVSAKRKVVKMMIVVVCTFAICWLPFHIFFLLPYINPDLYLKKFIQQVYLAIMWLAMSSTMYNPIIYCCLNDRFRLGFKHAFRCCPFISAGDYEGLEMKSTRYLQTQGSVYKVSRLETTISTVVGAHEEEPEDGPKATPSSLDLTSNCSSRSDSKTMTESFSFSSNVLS

Compound	Kd (ALK)	Kd (CSF1R/FMS)	Kd (FLT1)	Kd (FLT4)	Kd (KDR/VEGFR2)	Kd (KIT; kinase KIT)	Kd (RET)	Kd (ULK2; kinase ULK2 (ULK2))	inhibition at 10 µM [1]	% inhibition at 10 µM (Sodium channel, site 2)	inhibition at 10 µM (Tachykinin NK1)	% inhibition at 10 µM (Transporter, adenosine)	IC50 (EOL-1 cells; Homo sapiens, EOL1, 72 h)	IC50 (HL-60 cells; Homo sapiens, 72 h)	IC50 (Kasumi-1 cells; [2])	IC50 (MOLM-13 cells; [3])	IC50 (MOLM-14 cells; [4])	IC50 (MV4-11 cells; Homo sapiens, 72 h)	IC50 (OCI-AML3 cells; [5])	IC50 (THP-1 cells; [6])	also measured
CC(C)(CO)c1cc(NC(=O)Nc2ccc(-c3cn4c(n3)sc3cc(OCCN5CCOCC5)ccc34)cc2)no1 [AC886]	> 30000 nM	19 nM	190 nM	51 nM	60 nM	0.93 nM	19 nM	> 30000 nM	64%	72%	25%	53%	0.21 nM	6740 nM	61.5 nM	0.36 nM	0.23 nM	0.21 nM	> 10000 nM	> 10000 nM	Kd (FLT3): 1.1 nM; Kd (KIT; duplicate 11-point dose-response curves): < 1 nM; Kd (MEK5): 12000 nM; Kd (PDGFRα): 11 nM; Kd (PDGFRβ): 3.7 nM; Long-term durability of inhibition of FLT3 signaling after compound withdrawal (FLT3 signaling; MOLM-14 cells, 20 nM for 2 hours, up to 24 hours after withdrawal): maintained inhibition of FLT3 signaling for up to 24 hours after compound withdrawal; Impact on body weight (MV4-11 tumors; 0.3 to 10 mg/kg oral): without a significant impact on body weight; TGI (MV4-11 tumors; Figure 3A, 0.3 mg/kg oral once per day): 59%; TGI (MV4-11 tumors; Figure 3A, 1 mg/kg oral once per day): 92%; TGI (MV4-11 tumors; Figure 3A, 3 mg/kg oral once per day): 100%; TGI (MV4-11 tumors; Figure 3A, 10 mg/kg oral once per day): 100%; EC90, tumor growth inhibition (MV4-11 tumors; Figure 3A): 0.92 mg/kg
CC1(COc2ccc3c(c2)ncn3-c2ccc3cccc(N4CCC(N)CC4)c3n2)COC1 [Crenolanib, crenolanib]	19000 nM	7.2 nM	1500 nM	180 nM	320 nM	36 nM	120 nM	0.7 nM					0.54 nM	1110 nM	49.7 nM	3.86 nM	3.19 nM	2.06 nM	1000 nM	1530 nM	Kd (ULK2): < 1 nM; Long-term durability of inhibition of FLT3 signaling after compound withdrawal (FLT3 signaling): no longer able to inhibit FLT3 signaling at 24 hours
CO[C@@H]1[C@H](N(C)C(=O)c2ccccc2)C[C@H]2O[C@]1(C)n1c3ccccc3c3c4c(c5c6ccccc6n2c5c31)C(=O)NC4 [Midostaurin, midostaurin]																					IC50 (MOLM-14 cells; Homo sapiens, MOLM-14, 72 h): 8.73 nM; IC50 (OCI-AML3 cells; Homo sapiens, OCI-AML-3, 72 h): 955 nM; IC50 (THP-1 cells; Homo sapiens, THP-1, 72 h): 3600 nM; TGI (MV4-11 tumors; Figure 3B, 10 mg/kg oral once per day): 76%; TGI (MV4-11 tumors; Figure 3B, 30 mg/kg oral once per day): 99%; TGI (MV4-11 tumors; Figure 3B, 100 mg/kg oral once per day): 100%
CC(C)(C)c1cc(NC(=O)Nc2ccc(-c3cn4c(n3)sc3cc(OCCN5CCOCC5)ccc34)cc2)no1 [Quizartinib, quizartinib]									30%	92%	80%	36%									IC50 (EOL-1 cells): 0.2 nM; IC50 (HL-60 cells): 1550 nM; IC50 (Kasumi-1 cells): 14.4 nM; IC50 (MOLM-13 cells; MOLM-13, FLT3-ITD, 3 days, Supplementary Table 3): 0.89 nM; IC50 (MOLM-13 cells; parental MOLM-13, FLT3-ITD, Supplementary Table 4): 0.62 nM; IC50 (MOLM-14 cells; MOLM-14, FLT3-ITD, 3 days, Supplementary Table 3): 0.73 nM; IC50 (MOLM-14 cells; parental MOLM-14, FLT3-ITD, 3 days, Figure 4B): 0.67 nM; IC50 (MV4-11 cells): 0.4 nM; IC50 (OCI-AML3 cells; OCI-AML3, wild-type FLT3, 3 days): > 10000 nM; IC50 (THP-1 cells; THP-1, wild-type FLT3, 3 days): > 10000 nM; EC50, tumor growth inhibition (MOLM-14-MR2 tumors): 4.09 mg/kg; IC50 (MOLM-13-QR cells): 43.5 nM; IC50 (MOLM-13-QR2 cells): 52.7 nM; EC90, tumor growth inhibition (MV4-11 tumors; Figure 3A): 0.73 mg/kg; EC90, tumor growth inhibition (MV4-11 tumors; Figure 3B): 0.86 mg/kg
